For data set [1] the following is noted: mean ± SD; for AUC0-10 hr: baseline-corrected. As to the method:
Subjects participated in a randomized, double-blind, single-dose, 4-way crossover study with a minimum of 1 week elapsing between trials. The 4 treatment groups were:
Subjects fasted overnight except for water. […] After 1 hour they were administered the study medication. Additional blood specimens were obtained immediately prior to the study medication and at 0.5, 1, 1.5, 2, 3, 4, 5, 6, 8, and 10 hours after taking the study medication. Subjects received a standardized lunch after the 6-hour blood draw. All blood specimens were drawn in duplicate (for plasma and whole blood assays) in 3 mL lavender-top vacutainers® containing K2EDTA. They were immediately placed in an ice bath and protected from the light. One vacutainer® of each pair was centrifuged at 3000 RPM for 20 min at 4°C to separate the plasma. The plasma sample and whole blood sample were then frozen at -70°C.
Thiamine tablets each containing 100 mg of thiamine hydrochloride were used (Amneal Pharmaceuticals). These were placed intact into opaque capsules. Identical capsules containing sucrose tablets were used as placebo such that the same number of capsules were used for each trial.
Quest Diagnostics analyzed all specimens for total thiamine using HPLC [4]. At Quest Diagnostics, plasma was deproteinized and then incubated with acid phosphatase to convert thiamine phosphate esters to free thiamine. The free thiamine was then oxidized to thiochrome by the addition of alkaline potassium ferricyanide. Depending on the age of the column and the temperature of the room, thiochrome retention time varied from 2.5 to 3.0 min. The mixture was injected to a Supelco (Bellefonte, PA, USA) high-performance liquid chromatographic column (7.5 cm^3 4.6 mm, particle size […]) connected to a high-performance liquid chromatographic system using a Hitachi (Pleasant, CA, USA) pump, autosampler, and fluorescent detector (excitation wavelength 365 nm, emission wavelength 440 nm). The mobile phase was 75 mmol/L of potassium phosphate at pH 7.5 with 25% methanol. The flow rate was set at 1.0 mL/min. Through this process, the thiochrome was then separated from other interfering substances and then measured fluorometrically. The amount of total thiamine in an unknown sample is proportional to the amount of thiochrome formed. The limit of quantification is 7 nmol/L. The assay range is 7 to 450 nmol/L. Samples with values above this range were diluted. The coefficient of variation for both the plasma and whole blood thiamine assays was calculated from the data collected in this study.
The thiamine levels were corrected by subtracting the baseline value. The baseline value was calculated as the average of the -1-hour and 0-hour values. Net systemic exposure to thiamine in each subject in each trial was quantitated using the area under the whole blood or plasma concentration curve from time zero through 10 hours after dosage (AUC0-10 hr). This was calculated using the cubic splines method. The overall effect of treatment condition (thiamine dose) on AUC0-10 hr in blood and plasma was tested using analysis of variance (ANOVA) for repeated measures. This was followed by the Student-Newman-Keuls procedure, nonparametric form, for evaluating all pairwise comparisons of the mean AUC0-10 hr values for the dosage groups. The peak thiamine concentration (Cmax) and the time to peak thiamine concentration (Tmax) were also calculated. Finally, half-life (t1\2) values were calculated where the terminal phase appeared log-linear.

For data set [2] the following is noted: cited from earlier work.
The conditions of data set [3]: single oral doses 100, 500, 1500 mg, healthy subjects; study not designed to detect adverse events. The text has this:
Subjects participated in a randomized, double-blind, single-dose, 4-way crossover study with a minimum of 1 week elapsing between trials.

Where [4] appears, read: plasma, 100 mg oral single dose.
The mark [5] stands for this setting: plasma, 500 mg oral single dose.
Setting [6] is: plasma, 1500 mg oral single dose.
[7] abbreviates: whole blood, 100 mg oral single dose.
Setting [8] is: whole blood, 500 mg oral single dose.
Setting [9] is: whole blood, 1500 mg oral single dose.

Structures are written as SMILES. Structures can show the parent of a compound that is named as a salt. Where two headings read alike, the source gives them in different places.

For `Cc1ncc(C[n+]2csc(CCO)c2C)c(N)n1` [thiamine hydrochloride], the AUC0-10 hr in data set [1] (setting [4]) came out at 0.177 ± 0.062 µM·h; in data set [1] (setting [5]), 0.612 ± 0.257 µM·h; in data set [1] (setting [6]), 2.059 ± 1.415 µM·h; in data set [1] (setting [7]) it was 0.214 ± 0.069 µM·h; in data set [1] (setting [8]) it was 0.623 ± 0.178 µM·h; in data set [1] (setting [9]), 2.046 ± 1.222 µM·h. In addition, the Cmax (usually the peak of the concentration-time curve) was determined as 39 ± 13 nM in data set [1] (setting [4]); 113 ± 42 nM in data set [1] (setting [5]); 397 ± 250 nM in data set [1] (setting [6]); 40 ± 11 nM in data set [1] (setting [7]); 95 ± 27 nM in data set [1] (setting [8]); 385 ± 188 nM in data set [1] (setting [9]). Also, the adverse effects result in data set [2] (1000 mg oral three times a day for 2 to 12 months, Alzheimer's disease) is “without any reports of adverse effects”. Besides, the side effects result in data set [2] (titrated up to 8000 mg per day over 1 year, in 2 subjects at 7000 and 7500 mg per day) is “nausea and indigestion”; in data set [3] it was “no side effects were reported”.
